Measured values taken from US20090148907A1, “NOVEL FRUCTOFURANOSIDASE ACTIVITY FOR OBTAINING THE PREBIOTIC OLIGOSACCHARIDE 6-KESTOSE” (CONSEJO SUPERIOR DE INVESTIGACIONES CIENTIFICAS, priority 2005, published 2009).

Columns and labels:
Format in all cases: biochemical
[1] = target: T1, fructofuranosidase of S. occidentalis (enzymatic concentrate F-1) (Schwanniomyces occidentalis, UniProt P24133); assay: Transfructosidase (transglycosylation) activity of enzymatic concentrate F-1 on sucrose, HPLC; conditions: for Composition of the system: maximum point of FOS production (4 h), F-1 5 U/ml; for Composition of the system / Composition of the reaction mixture: 50° C.; for Composition of the reaction mixture: F1 5 U/ml, pH 5.6
T1 construct: the enzyme object of the invention is extracellularly released; endogenous in cells; host or cells: Schwanniomyces occidentalis (ATCC26077 named) grown in lactose medium; the cell-free supernatant was concentrated by 30 kDa tangential filtration and dialysed
Procedure: The transglycosylation activity of the enzymatic concentrate obtained by ultrafiltration (F-1) was assayed. A reaction was prepared using a high concentration of sucrose (510 g/l), to favor the formation of glycosidic bonds in detriment of the hydrolysis reaction, and a final activity enzymatic in the reaction mixture of approximately 5 U/ml. […] On one hand, fructose (peak 1) and glucose (peak 2) are formed as hydrolytic products. On the other hand, two trisaccharides are obtained: a majority trisaccharide (peak 4), identified as 6-kestose [β-D-Fru-(2→6)-β-D-Fru-(2→1)-α-D-Glu] and another minority trisaccharide (peak 5), identified as 1-kestose. [β-D-Fru-(2→1)-β-D-Fru-(2→1)-α-D-Glu]. The sucrose that has not reacted corresponds to peak 3.
It is observed that the 6-kestose/1-kestose molar ratio reaches a maximum value of 3.3 between 4 and 6 hours of reaction.
A high concentration solution of sucrose (510 g/l) in 0.2 M sodium acetate buffer pH 5.6 was prepared. The fructofuranosidase was added until a final concentration in the reaction mixture of 5 U/ml (one unit U is the enzymatic activity corresponding to release of a micromole of reducing sugars per minute, using 100 g/l of sucrose as substrate, in 0.2 M sodium acetate buffer pH 5.6, at 50° C.). The reaction mixture was incubated for 24 hours at 50° C., with orbital stirring at 700 rpm. Aliquots were extracted at different times, incubated for 5 minutes at 80° C. to inactivate the enzyme, diluted 1:2 (v/v) with water, centrifuged for 5 minutes at 6000 rpm in an eppendorf tube with a 0.45 μm filter and analyzed by HPLC liquid chromatography. The profile of the products formed is seen in FIG. 5. It is observed that the fructofuranosidase of S. occidentalis has transfer activity (transfructosylation). Two trisaccharides are obtained: one majority trisaccharide, 6-kestose [3-D-Fru-(2→6)-β-D-Fru-(2→1)-α-D-Glu]and another minority trisaccharide, identified as 1-kestose [β-D-Fru-(2→1)-β-D-Fru-(2→1)-α-D-Glu]. In the maximum point of FOS production (4 h), the composition of the system was: 8.7% fructose, 11.9% glucose, 70.8% sucrose, 2.0% 1-kestose and 6.6% 6-kestose.

[2] = target: T2, fructofuranosidase of S. occidentalis (pure enzyme F-3) (Schwanniomyces occidentalis, UniProt P24133); assay: Transfructosidase (transglycosylation) activity of pure enzyme F-3 on sucrose, HPLC; conditions: for Composition of the system: final reaction time (144 h), F-3 0.5 U/ml, 50° C.
T2 construct: the enzyme object of the invention is extracellularly released; endogenous in cells; host or cells: Schwanniomyces occidentalis culture supernatant; concentrated (F-1), then DEAE-Sephacel at pH 7 (F-2) and at pH 5 (F-3)
Procedure: The transglycosylation activity of the pure enzyme (fraction F-3) was assayed. A reaction was prepared using a high concentration of sucrose (510 g/l) and a final enzymatic activity in the reaction mixture of approximately 0.5 U/ml. […] It is seen that the profile of the obtained products is very similar in both cases, specifically the 6-kestose/1-kestose ratio that was obtained was 3.3.
After 144 hours of reaction, 42.6 g/l of FOS were obtained. The total percentage (w/w) of fructooligosaccharides was 8.4% this value being with respect to the total weight of carbohydrates in the medium.
A high concentration solution of sucrose ([…]) in 0.2 M sodium acetate buffer pH 5.6 was prepared. The fructofuranosidase was added until a final concentration in the reaction mixture of 0.5 U/ml (one unit U is the enzymatic activity corresponding to releasing a micromole of reducing sugars per minute, using 100 g/l of sucrose as substrate, in 0.2 M sodium acetate buffer pH 5.6, at 50° C.). The reaction mixture was incubated for 144 hours at 50° C., with orbital stirring at 700 rpm. Aliquots were extracted at different times, incubated for 5 minutes at 80° C. to inactivate the enzyme, diluted 1:2 (v/v) with water centrifuged for 5 minutes at 6000 rpm in an eppendorf tube with a 0.45 μm filter and analyzed by HPLC liquid chromatography. The profile of the products formed is seen in FIG. 7. Two trisaccharides were obtained: a majority trisaccharide, identified as 6-kestose, and another minority trisaccharide, identified as 1-kestose. At the final reaction time (144 h), the composition of the system was: 12.7% fructose, 14.80/glucose. 64.1% sucrose, 2.4% 1-kestose and 5.9% 6-kestose).

[3] = target: T3, Fructofuranosidase activity of the F-3 fraction of S. occidentalis (Schwanniomyces occidentalis, UniProt P24133); assay: Fructofuranosidase (hydrolytic) activity of the purified enzyme F-3 on different substrates; conditions: for Activity specific: purified protein F-3, 1% substrate; for Hydrolytic activity on substrate (in words): purified enzyme F-3
T3 construct: the enzyme object of the invention is extracellularly released; endogenous in cells; host or cells: Schwanniomyces occidentalis culture supernatant; concentrated (F-1), then DEAE-Sephacel at pH 7 (F-2) and at pH 5 (F-3)
Procedure: (§1) The cell free fraction was obtained by centrifugation (F-0) of a culture of S. occidentalis ATCC26077 grown at 29° C. and 235 rpm. Fructofuranosidase activity was assayed in the latter, determining the glucose release on different substrates. A colorimetric assay and the standard methodology were used. The released glucose was quantified using the glucose oxidase-peroxidase coupled reaction: 0.4 ml of the solution to be determined was mixed with 0.1 ml of A:B (20:1) solution (A: 0.85 U/ml glucose oxidase, 0.40 U/ml peroxidase in sodium phosphate buffer pH 5; B: 0.6% O-dianisidine). It was incubated for 30 minutes at 37° C. and spectrophotometrically quantified at 450 nm. A standard glucose curve (0 to 100 μg/ml) was used. The fructofuranosidase activity unit is defined in μmol/ml min of glucose determined in the described conditions.
The hydrolytic activity of the purified enzyme (F-3), following the described method, was assayed on different substrates. The maximum activity level is obtained on sucrose. Activity on lactose, leucrose, turanose or palatinose was not observed.

[4] = target: T4, Fructofuranosidase activity of the extracellular fraction of S. occidentalis (Schwanniomyces occidentalis, UniProt P24133); assay: Fructofuranosidase activity of the extracellular fraction on different carbohydrates (glucose release, glucose oxidase-peroxidase); conditions: for Specific activity: extracellular fraction concentrated (30 kDa filter) and dialysed, activity on the named substrate; for Fructofuranosidase activity on substrate (in words): extracellular fraction, named sugar used as substrate
T4 construct: the enzyme object of the invention is extracellularly released; endogenous in cells; host or cells: Schwanniomyces occidentalis (ATCC26077 named) grown in lactose medium; the cell-free supernatant was concentrated by 30 kDa tangential filtration and dialysed
Procedure: as §1
The cell free fraction, obtained by centrifugation, of a culture of S. occidentalis grown in lactose medium: 0.3% (w/v) YNB (yeast nitrogen base w/o amino acids, DIFCO), 3.5% (w/v) bactopeptone (DIFCO), 0.5% (w/v) KH2 PO4, 1% (w/v) MgSO4.7H2O, 1% (w/v) (NH4)SO4, and 2% lactose as a carbon source (R. D. Klein et al., “Purification and characterization of invertase from to novel industrial yeast, Schwanniomyces occidentalis”, Prep. Biochem, 1989, vol 19, pp. 293-319), grown until an optical density of 8.34 OD 660 nm, was concentrated using a tangential filtration system (30 kDa filter) followed by dialysis against 20 mM HCl-Tris pH 7 for 2 hours at a temperature of 4° C. and was assayed on different substrates.

T1 sequence (P24133 other isoform, or with tags, fused parts or gaps with the stated changes): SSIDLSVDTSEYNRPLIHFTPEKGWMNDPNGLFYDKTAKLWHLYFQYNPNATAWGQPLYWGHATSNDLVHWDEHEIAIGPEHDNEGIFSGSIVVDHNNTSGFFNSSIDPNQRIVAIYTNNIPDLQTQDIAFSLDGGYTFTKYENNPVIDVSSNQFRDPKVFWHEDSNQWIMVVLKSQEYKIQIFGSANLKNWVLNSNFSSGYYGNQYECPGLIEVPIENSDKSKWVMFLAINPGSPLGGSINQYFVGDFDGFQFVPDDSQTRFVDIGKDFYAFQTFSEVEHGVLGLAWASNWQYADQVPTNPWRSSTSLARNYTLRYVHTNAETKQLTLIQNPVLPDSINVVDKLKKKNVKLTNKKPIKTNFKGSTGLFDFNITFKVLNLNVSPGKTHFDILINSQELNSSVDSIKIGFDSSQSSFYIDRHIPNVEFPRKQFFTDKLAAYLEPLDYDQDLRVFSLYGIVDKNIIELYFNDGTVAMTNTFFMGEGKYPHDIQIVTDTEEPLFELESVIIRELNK
T2 sequence (P24133 other isoform, or with tags, fused parts or gaps with the stated changes): as above
T4 sequence (P24133 other isoform, or with tags, fused parts or gaps with the stated changes): as above
T3 sequence (P24133 other isoform, or with tags, fused parts or gaps with the stated changes): as above

Structure (SMILES)	Composition of the system [1] [%]	Composition of the reaction mixture ([1]; reaction time 1 h) [grams/liter]	Composition of the reaction mixture ([1]; reaction time 1.5 h) [grams/liter]	Composition of the reaction mixture ([1]; reaction time 4 h) [grams/liter]	Composition of the reaction mixture ([1]; reaction time 6 h) [grams/liter]	Composition of the reaction mixture ([1]; reaction time 24 h) [grams/liter]	Composition of the system [2] [%]	Activity specific [3] [mU/μg]	Specific activity [4] [mU/μg]	Hydrolytic activity on substrate (in words) [3]	Fructofuranosidase activity on substrate (in words) [4]	6-kestose/1-kestose molar ratio, maximum value ([1]; between 4 and 6 hours of reaction, F-1)	6-kestose/1-kestose ratio ([2]; pure enzyme F-3 0.5 U/ml, 144 hours)
O=C(CO)[C@@H](O)[C@H](O)[C@H](O)CO [fructose]	8.7	5.3	16.8	44.3	54.8	113.6	12.7	–	–	–	–	–	–
OC[C@H]1O[C@@](CO)(OC[C@@]2(O[C@H]3O[C@H](CO)[C@@H](O)[C@H](O)[C@H]3O)O[C@H](CO)[C@@H](O)[C@@H]2O)[C@@H](O)[C@@H]1O [1-kestose, β-D-Fru-(2→1)-β-D-Fru-(2→1)-α-D-Glu]	2.0	2.8	6.4	10.1	9.6	4.5	2.4	6.3	2.2	–	–	–	–
O=C(CO)[C@@H](O[C@H]1O[C@H](CO)[C@@H](O)[C@H](O)[C@H]1O)[C@H](O)[C@H](O)CO [turanose]	–	–	–	–	–	–	–	–	–	not observed	No activity was detected	–	–
OC[C@H]1O[C@@H](O[C@H]2[C@H](O)[C@@H](O)C(O)O[C@@H]2CO)[C@H](O)[C@@H](O)[C@H]1O (stereo partly shown) [lactose]	–	–	–	–	–	–	–	–	–	not observed	No activity was detected	–	–
OC[C@H]1O[C@H](OC[C@H]2O[C@H](O[C@]3(CO)O[C@H](CO)[C@@H](O)[C@@H]3O)[C@H](O)[C@@H](O)[C@@H]2O)[C@H](O)[C@@H](O)[C@H]1O [raffinose]	–	–	–	–	–	–	–	7.5	0.2	–	–	–	–
OC[C@H]1O[C@@](CO)(OC[C@H]2O[C@@](CO)(O[C@H]3O[C@H](CO)[C@@H](O)[C@H](O)[C@H]3O)[C@@H](O)[C@@H]2O)[C@@H](O)[C@@H]1O [6-kestose, β-D-Fru-(2→6)-β-D-Fru-(2→1)-α-D-Glu]	6.6	5.4	12.7	33.5	31.0	10.6	5.9	–	–	–	–	3.3	3.3
OC[C@H]1O[C@@](CO)(OC[C@@]2(OC[C@@]3(O[C@H]4O[C@H](CO)[C@@H](O)[C@H](O)[C@H]4O)O[C@H](CO)[C@@H](O)[C@@H]3O)O[C@H](CO)[C@@H](O)[C@@H]2O)[C@@H](O)[C@@H]1O [nystose]	–	–	–	–	–	–	–	6.2	0.6	–	–	–	–
OC[C@H]1O[C@H](OC[C@H]2OC(O)(CO)[C@@H](O)[C@@H]2O)[C@H](O)[C@@H](O)[C@@H]1O (stereo partly shown) [palatinose]	–	–	–	–	–	–	–	–	–	not observed	No activity was detected	–	–
OC[C@H]1O[C@@](CO)(O[C@H]2O[C@H](CO)[C@@H](O)[C@H](O)[C@H]2O)[C@@H](O)[C@@H]1O [sucrose, α-D-Glu-(1→2)-β-D-Fru]	70.8	487.3	453.8	361.6	343.7	240.9	64.1	109	24	–	–	–	–
OC[C@H]1O[C@H](O[C@@H]2COC(O)(CO)[C@@H](O)[C@@H]2O)[C@H](O)[C@@H](O)[C@@H]1O (stereo partly shown) [leucrose]	–	–	–	–	–	–	–	–	–	not observed	No activity was detected	–	–
